Source: patent publication US9795139B2, “Molecules having pesticidal utility, and intermediates, compositions, and processes, related thereto” (priority 2015, dated 2017)

Key:
Assay type in all cases: in vivo
[1] = test system: Beet Armyworm (Spodoptera exigua, LAPHEG); assay: Bioassay on Beet Armyworm (BAW), 128-well diet tray assay; details: 168 h, 50 μg/cm^2 on artificial diet, second instar larvae, 25° C., five to seven days, average of eight wells, read-out: BAW % Control (or Mortality) rating
Procedure: (§1) Certain molecules disclosed in this document were tested against BAW and CL using procedures described in the following examples. In the reporting of the results, the “BAW & CL Rating Table” was used (See Table Section).
Bioassays on BAW were conducted using a 128-well diet tray assay. One to five second instar BAW larvae were placed in each well (3 mL) of the diet tray that had been previously filled with approximately 1.5 mL of artificial diet to which 50 μg/cm^2 of the test molecule (dissolved in 50 μL of 90:10 acetone-water mixture) had been applied (to each of eight wells) and then allowed to dry. Trays were covered with a clear self-adhesive cover, vented to allow gas exchange, and held at 25° C., 14:10 light-dark for five to seven days. Percent mortality was recorded for the larvae in each well; activity in the eight wells was then averaged. The results are indicated in the table entitled “Table ABC: Biological Results” (See Table Section).

[2] = test system: Cabbage Looper (Trichoplusia ni, TRIPNI); assay: Bioassay on Cabbage Looper (CL), 128-well diet tray assay; details: 168 h, 50 μg/cm^2 on artificial diet, second instar larvae, 25° C., five to seven days, average of eight wells, read-out: CL % Control (or Mortality) rating
Procedure: as §1
Bioassays on CL were conducted using a 128-well diet tray assay. one to five second instar CL larvae were placed in each well (3 mL) of the diet tray that had been previously filled with 1 mL of artificial diet to which 50 μg/cm^2 of the test molecule (dissolved in 50 μL of 90:10 acetone-water mixture) had been applied (to each of eight wells) and then allowed to dry. Trays were covered with a clear self-adhesive cover, vented to allow gas exchange, and held at 25° C., 14:10 light-dark for five to seven days. Percent mortality was recorded for the larvae in each well; activity in the eight wells was then averaged. The results are indicated in the table entitled “Table ABC: Biological Results” (See Table Section).

[3] = test system: Yellow Fever Mosquito (Aedes aegypti, AEDSAE); details: about 1 day-old larvae, 96-well plate from 4000 ppm DMSO master, 3 days at room temperature
Procedure: Certain molecules disclosed in this document were tested against YFM using procedures described in the following paragraph. In the reporting of the results, the “GPA & YFM Rating Table” was used (See Table Section).
Master plates containing 400 μg of a molecule dissolved in 100 μL of dimethyl sulfoxide (DMSO) (equivalent to a 4000 ppm solution) are used. A master plate of assembled molecules contains 15 μL per well. To this plate, 135 μL of a 90:10 water/acetone mixture is added to each well. A robot is programmed to dispense 15 μL aspirations from the master plate into an empty 96-well shallow plate (“daughter” plate). There are 6 reps (“daughter” plates) created per master. The created “daughter” plates are then immediately infested with YFM larvae.
The day before plates are to be treated, mosquito eggs are placed in Millipore water containing liver powder to begin hatching (4 g. into 400 mL). After the “daughter” plates are created using the robot, they are infested with 220 μL of the liver powder/larval mosquito mixture (about 1 day-old larvae). After plates are infested with mosquito larvae, a non-evaporative lid is used to cover the plate to reduce drying. Plates are held at room temperature for 3 days prior to grading. After 3 days, each well is observed and scored based on mortality. The results are indicated in the table entitled “Table ABC: Biological Results” (See Table Section).

Compound	mortality at 50 µg/cm2 [1] [%]	mortality at 50 µg/cm2 [2] [%]	YFM % Control (or Mortality) rating [3]
O=C(NC1CCC(F)(F)CC1)c1cc(NC(=O)[C@H]2[C@H](c3cc(Cl)cc(Cl)c3)C2(Cl)Cl)ccc1Cl (relative stereo) [Molecule F43, trans-2-Chloro-5-(2,2-dichloro-3-(3,5-dichlorophenyl)cyclopropanecarboxamido)-N-(4,4-difluorocyclohexyl)benzamide]	50 to 100	50 to 100	A (80-100)
O=C(NC1CCC(F)(F)CC1)c1cc(NC(=O)[C@H]2[C@H](c3ccc(Cl)c(Cl)c3)C2(Cl)Cl)ccc1Cl (relative stereo) [Molecule F44, trans-2-Chloro-5-(2,2-dichloro-3-(3,4-dichlorophenyl)cyclopropanecarboxamido)-N-(4,4-difluorocyclohexyl)benzamide]	50 to 100	50 to 100	A (80-100)
O=C(NC1CCC(F)(F)CC1)c1cc(NC(=O)[C@H]2[C@H](c3cc(Cl)c(Cl)c(Cl)c3)C2(Cl)Cl)ccc1Cl (relative stereo) [Molecule F45, trans-2-Chloro-5-(2,2-dichloro-3-(3,4,5-trichlorophenyl)cyclopropanecarboxamido)-N-(4,4-difluorocyclohexyl)benzamide]	50 to 100	50 to 100	A (80-100)
Cc1cc(Cl)cc([C@H]2[C@H](C(=O)Nc3ccc(Cl)c(C(=O)NC4CC(F)(F)C4)c3)C2(Cl)Cl)c1 (relative stereo) [Molecule F46, trans-2-Chloro-5-(2,2-dichloro-3-(3-chloro-5-methylphenyl)cyclopropanecarboxamido)-N-(3,3-difluorocyclobutyl)benzamide]	50 to 100	50 to 100	D (No activity noticed in this bioassay)
Cc1c(Cl)cc([C@H]2[C@H](C(=O)Nc3ccc(Cl)c(C(=O)NC4CC(F)(F)C4)c3)C2(Cl)Cl)cc1Cl (relative stereo) [Molecule F48, trans-2-Chloro-5-(2,2-dichloro-3-(3,5-dichloro-4-methylphenyl)cyclopropanecarboxamido)-N-(3,3-difluorocyclobutyl)benzamide]	50 to 100	50 to 100	A (80-100)
Cc1cc([C@H]2[C@H](C(=O)Nc3ccc(Cl)c(C(=O)NC4(C#N)CC4)c3)C2(Cl)Cl)cc(Cl)c1Cl (relative stereo) [Molecule F51, trans-2-Chloro-N-(1-cyanocyclopropyl)-5-(2,2-dichloro-3-(3,4-dichloro-5-methylphenyl)cyclopropanecarboxamido)benzamide]	50 to 100	50 to 100	D (No activity noticed in this bioassay)
O=C(NC1COC1)c1cc(NC(=O)[C@H]2[C@H](c3cc(Cl)cc(Cl)c3)C2(Cl)Cl)ccc1Cl (relative stereo) [Molecule F53, trans-2-Chloro-5-(2,2-dichloro-3-(3,5-dichlorophenyl)cyclopropanecarboxamido)-N-(oxetan-3-yl)benzamide]	50 to 100	50 to 100	A (80-100)
CC(C)(C)OC(=O)N1CC(NC(=O)c2cc(NC(=O)[C@H]3[C@H](c4cc(Cl)cc(Cl)c4)C3(Cl)Cl)ccc2Cl)C1 (relative stereo) [Molecule F54, trans-tert-butyl 3-(2-chloro-5-(2,2-dichloro-3-(3,5-dichlorophenyl)cyclopropanecarboxamido)-benzamido)azetidine-1-carboxylate]	50 to 100	50 to 100	D (No activity noticed in this bioassay)
C[C@]1(c2cc(Cl)cc(Cl)c2)[C@H](C(=O)Nc2ccc(Cl)c(C(=O)NC3CC(F)(F)C3)c2)C1(Cl)Cl (relative stereo) [Molecule F61, trans-2-chloro-5-(2,2-dichloro-3-(3,5-dichloro-phenyl)-3-methylcyclopropane-1-carboxamido)-N-(3,3-difluorocyclobutyl)-benzamide]	50 to 100	50 to 100	A (80-100)
C[C@@]1(c2cc(Cl)cc(Cl)c2)[C@H](C(=O)Nc2ccc(Cl)c(C(=O)NC3CC(F)(F)C3)c2)C1(Cl)Cl (relative stereo) [Molecule F62, cis-2-Chloro-5-(2,2-dichloro-3-(3,5-dichlorophenyl)-3-methylcyclopropane-1-carboxamido)-N-(3,3-difluorocyclobutyl)benzamide]	0 to 50	0 to 50	D (No activity noticed in this bioassay)
O=C1CCC(NC(=O)c2cc(NC(=O)[C@H]3[C@H](c4cc(Cl)cc(Cl)c4)C3(Cl)Cl)ccc2Cl)CC1 (relative stereo) [Molecule F65, trans-2-Chloro-5-(2,2-dichloro-3-(3,5-dichlorophenyl)cyclopropane-1-carboxamido)-N-(4-oxocyclohexyl)benzamide]	0 to 50	50 to 100	A (80-100)
N#CC1(NC(=O)c2cc(NC(=O)[C@H]3[C@H](c4ccc(Br)c(Cl)c4)C3(Cl)Cl)ccc2Cl)CC1 (relative stereo) [Molecule F66, trans-5-(3-(4-bromo-3-chlorophenyl)-2,2-dichlorocyclopropane-1-carboxamido)-2-chloro-N-(1-cyanocyclopropyl)benzamide]	50 to 100	50 to 100	A (80-100)
C=Cc1ccc([C@H]2[C@H](C(=O)Nc3ccc(Cl)c(C(=O)NC4(C#N)CC4)c3)C2(Cl)Cl)cc1Cl (relative stereo) [Molecule F67, trans-2-chloro-N-(1-cyanocyclopropyl)-5-(2,2-dichloro-3-(3-chloro-4-vinylphenyl)cyclopropane-1-carboxamido)benzamide]	50 to 100	50 to 100	A (80-100)
O=C1CC(NC(=O)c2cc(NC(=O)[C@H]3[C@H](c4cc(Cl)cc(Cl)c4)C3(Cl)Cl)ccc2Cl)C1 (relative stereo) [Molecule F68, trans-2-chloro-5-(2,2-dichloro-3-(3,5-dichloro-phenyl)cyclopropane-1-carboxamido)-N-(3-oxocyclobutyl)benzamide]	50 to 100	50 to 100	A (80-100)
O=C(NC1CC(F)(F)C1)c1cc(NC(=O)[C@H]2[C@H](c3ccc([N+](=O)[O-])cc3)C2(Cl)Cl)ccc1Cl (relative stereo) [Molecule F69, trans-2-chloro-5-(2,2-dichloro-3-(4-nitrophenyl)cyclopropane-1-carboxamido)-N-(3,3-difluorocyclobutyl)benzamide]	50 to 100	50 to 100	A (80-100)
Nc1ccc([C@H]2[C@H](C(=O)Nc3ccc(Cl)c(C(=O)NC4CC(F)(F)C4)c3)C2(Cl)Cl)cc1 (relative stereo) [Molecule F70, trans-5-(3-(4-aminophenyl)-2,2-dichlorocyclopropane-1-carboxamido)-2-chloro-N-(3,3-difluorocyclobutyl)benzamide]	0 to 50	50 to 100	D (No activity noticed in this bioassay)
O=C1CCC(NC(=O)c2cc(NC(=O)[C@H]3[C@H](c4ccc(F)c(Cl)c4)C3(Cl)Cl)ccc2Cl)CC1 (relative stereo) [Molecule F81, trans-2-Chloro-5-(2,2-dichloro-3-(3-chloro-4-fluorophenyl)cyclopropane-1-carboxamido)-N-(4-oxocyclohexyl)benzamide]	50 to 100	50 to 100	A (80-100)
